Experiments:
[1] = tested on: lymphocytic leukemia P388; test: Lymphocytic leukemia P388 test (intraperitoneal administration); assay type: in vivo, DBA/2 mice; conditions: days 1, 5 and 9
How it was run: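 DBA/2 mice, single sex, 5-6 per group, inoculated i.p. with 10^6 P388 leukemia cells. Compounds given i.p. at various doses on days 1, 5 and 9; survival followed 30 days, reporting median survival time and treated/control (T/C) survival ratio.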

[2] = tested on: melanotic melanoma B16; test: Melanotic Melanoma B16 test; assay type: in vivo, C57BC/6 mice; conditions: days 1 through 9
Procedure: The animals used are C57BC/6 mice, all of the same sex, weighing a minimum of 17 g. and all within a 3-g. weight range. There are normally 10 animals per test group. A one-gram portion of melanotic melanoma B16 tumor is homogenized in 10 ml. of cold balanced salt solution and a 0.5-ml. aliquot of the homogenate is implanted intraperitoneally into each of the test mice. The test compounds are administered intraperitoneally on days one through 9 (relative to tumor inoculation) at various doses. The animals are weighed and survivors are recorded on a regular basis for 60 days. The median survival time and the ratio of survival time for treated (T)/control (C) animals are calculated. […] The criterion for efficacy is T/C×100≥125%.

[3] = Mus musculus, P388, ip, 12.5 mg./kg. i.p., efficacy ≥125%, read-out: T/C × 100
[4] = Mus musculus, P388, ip, 25 mg./kg. i.p., efficacy ≥125%, read-out: T/C × 100
[5] = Mus musculus, P388, ip, 50 mg./kg. i.p., efficacy ≥125%, read-out: T/C × 100
[6] = Mus musculus, P388, ip, 100 mg./kg. i.p., efficacy ≥125%, read-out: T/C × 100
[7] = Mus musculus, P388, ip, 200 mg./kg. i.p., efficacy ≥125%, read-out: T/C × 100
[8] = Mus musculus, ip, 3 mg./kg. i.p., efficacy ≥125%, read-out: T/C × 100
[9] = Mus musculus, ip, 6 mg./kg. i.p., efficacy ≥125%, read-out: T/C × 100
[10] = Mus musculus, ip, 12.5 mg./kg. i.p., efficacy ≥125%, read-out: T/C × 100
[11] = Mus musculus, ip, 25 mg./kg. i.p., efficacy ≥125%, read-out: T/C × 100
[12] = Mus musculus, ip, 50 mg./kg. i.p., efficacy ≥125%, read-out: T/C × 100
[13] = Mus musculus, ip, 12 mg./kg. i.p., efficacy ≥125%, read-out: T/C × 100
[14] = Mus musculus, P388, ip, 1.5 mg./kg. i.p., efficacy ≥125%, read-out: T/C × 100
[15] = Mus musculus, P388, ip, 3.1 mg./kg. i.p., efficacy ≥125%, read-out: T/C × 100
[16] = Mus musculus, P388, ip, 6.2 mg./kg. i.p., efficacy ≥125%, read-out: T/C × 100
[17] = Mus musculus, ip, 1.5 mg./kg. i.p., efficacy ≥125%, read-out: T/C × 100
[18] = 25 mg./kg. i.p., efficacy ≥125%
[19] = 50 mg./kg. i.p., efficacy ≥125%

O=C1C2=C(NCCN3CCNCC3)CCC(NCCN3CCNCC3)=C2C(=O)c2c(O)ccc(O)c21 [Leuco-1,4-bis[2-(1-piperazinyl)ethylamino]-5,8-dihydroxyanthraquinone]
Median Survival Time ([1]; 12.5 mg./kg. i.p.): 14.0 days
Median Survival Time ([1]; 25 mg./kg. i.p.): 15.0 days
Median Survival Time ([1]; 50 mg./kg. i.p.): 16.0 days
Median Survival Time ([1]; 100 mg./kg. i.p.): 21.0 days
Median Survival Time ([1]; 200 mg./kg. i.p.): 7.0 days
response vs control in vivo at 12.5 mg/kg [1, 3]: 156%
response vs control in vivo at 25 mg/kg [1, 4]: 167%
response vs control in vivo at 50 mg/kg [1, 5]: 178%
response vs control in vivo at 100 mg/kg [1, 6]: 233%
response vs control in vivo at 200 mg/kg [1, 7]: 78%
Median Survival Time ([2]; 3 mg./kg. i.p.): 20.5 days
Median Survival Time ([2]; 6 mg./kg. i.p.): 22.0 days
Median Survival Time ([2]; 12.5 mg./kg. i.p.): 26.0 days
Median Survival Time ([2]; 25 mg./kg. i.p.): 30.5 days
Median Survival Time ([2]; 50 mg./kg. i.p.): 34.5 days
response vs control in vivo at 3 mg/kg [2, 8]: 121%
response vs control in vivo at 6 mg/kg [2, 9]: 129%
response vs control in vivo at 12.5 mg/kg [2, 10]: 153%
response vs control in vivo at 25 mg/kg [2, 11]: 179%
response vs control in vivo at 50 mg/kg [2, 12]: 203%

O=C1C2=C(NCCN3CCCC3)CCC(NCCN3CCCC3)=C2C(=O)c2c(O)ccc(O)c21 [Leuco-1,4-bis[2-(1-pyrrolidinyl)ethylamino]-5,8-dihydroxyanthraquinone]
Median Survival Time ([1]; 25 mg./kg. i.p.): 15.0 days
Median Survival Time ([1]; 50 mg./kg. i.p.): 16.0 days
Median Survival Time ([1]; 100 mg./kg. i.p.): 19.0 days
Median Survival Time ([1]; 200 mg./kg. i.p.): 23.0 days
response vs control in vivo at 25 mg/kg [1, 4]: 136%
response vs control in vivo at 50 mg/kg [1, 5]: 145%
response vs control in vivo at 100 mg/kg [1, 6]: 173%
response vs control in vivo at 200 mg/kg [1, 7]: 209%
Median Survival Time ([2]; 12 mg./kg. i.p.): 21.0 days
Median Survival Time ([2]; 25 mg./kg. i.p.): 22.0 days
Median Survival Time ([2]; 50 mg./kg. i.p.): 23.0 days
response vs control in vivo at 12 mg/kg [2, 13]: 131%
response vs control in vivo at 25 mg/kg [2, 11]: 137%
response vs control in vivo at 50 mg/kg [2, 12]: 144%

O=C1C2=C(NCCNCCO)CCC(NCCNCCO)=C2C(=O)c2c(O)ccc(O)c21 [Leuco-1,4-bis[2-(2-hydroxyethylamino)ethylamino]-5,8-dihydroxyanthraquinone]
Median Survival Time ([1]; 0.04 mg./kg. i.p.): 18.5 days
Median Survival Time ([1]; 0.09 mg./kg. i.p.): 21.5 days
Median Survival Time ([1]; 0.19 mg./kg. i.p.): 21.5 days
Median Survival Time ([1]; 0.39 mg./kg. i.p.): 22.0 days
Median Survival Time ([1]; 0.78 mg./kg. i.p.): 28.0 days
Median Survival Time ([1]; 1.5 mg./kg. i.p.): > 30.0 days
Median Survival Time ([1]; 3.1 mg./kg. i.p.): 26.0 days
Median Survival Time ([1]; 6.2 mg./kg. i.p.): 23.0 days
Median Survival Time ([1]; 12.5 mg./kg. i.p.): 23.5 days
Median Survival Time ([1]; 25 mg./kg. i.p.): 12.0 days
response vs control in vivo at 0.19 mg/kg ([1]; Mus musculus, P388, ip, 0.19 mg./kg. i.p., efficacy ≥125%, read-out: T/C × 100): 205%
response vs control in vivo at 0.04 mg/kg ([1]; Mus musculus, P388, ip, 0.04 mg./kg. i.p., efficacy ≥125%, read-out: T/C × 100): 176%
response vs control in vivo at 0.09 mg/kg ([1]; Mus musculus, P388, ip, 0.09 mg./kg. i.p., efficacy ≥125%, read-out: T/C × 100): 205%
response vs control in vivo at 0.39 mg/kg ([1]; Mus musculus, P388, ip, 0.39 mg./kg. i.p., efficacy ≥125%, read-out: T/C × 100): 209%
response vs control in vivo at 0.78 mg/kg ([1]; Mus musculus, P388, ip, 0.78 mg./kg. i.p., efficacy ≥125%, read-out: T/C × 100): 267%
response vs control in vivo at 1.5 mg/kg [1, 14]: > 286%
response vs control in vivo at 3.1 mg/kg [1, 15]: 248%
response vs control in vivo at 6.2 mg/kg [1, 16]: 219%
response vs control in vivo at 12.5 mg/kg [1, 3]: 224%
response vs control in vivo at 25 mg/kg [1, 4]: 114%
Median Survival Time ([2]; 0.37 mg./kg. i.p.): 22.0 days
Median Survival Time ([2]; 0.75 mg./kg. i.p.): 28.5 days
Median Survival Time ([2]; 1.5 mg./kg. i.p.): 30.0 days
Median Survival Time ([2]; 3 mg./kg. i.p.): 20.5 days
Median Survival Time ([2]; 6 mg./kg. i.p.): 9.5 days
response vs control in vivo at 0.37 mg/kg ([2]; Mus musculus, ip, 0.37 mg./kg. i.p., efficacy ≥125%, read-out: T/C × 100): 137%
response vs control in vivo at 0.75 mg/kg ([2]; Mus musculus, ip, 0.75 mg./kg. i.p., efficacy ≥125%, read-out: T/C × 100): 178%
response vs control in vivo at 1.5 mg/kg [2, 17]: 187%
response vs control in vivo at 3 mg/kg [2, 8]: 128%
response vs control in vivo at 6 mg/kg [2, 9]: 59%

CC(C)NCCNC1=C2C(=O)c3c(O)ccc(O)c3C(=O)C2=C(NCCNC(C)C)CC1 [Leuco-1,4-bis[2-(2-isopropylamino)ethylamino]-5,8-dihydroxyanthraquinone]
Median Survival Time ([1]; 12.5 mg./kg. i.p.): 15.0 days
T/C × 100 ([1]; 12.5 mg./kg. i.p., efficacy ≥125%): 136%
Median Survival Time ([1]; 25 mg./kg. i.p.): 17.0 days
T/C × 100 [1, 18]: 155%
Median Survival Time ([1]; 50 mg./kg. i.p.): 19.0 days
T/C × 100 [1, 19]: 173%
Median Survival Time ([1]; 100 mg./kg. i.p.): 8.0 days
T/C × 100 ([1]; 100 mg./kg. i.p., efficacy ≥125%): 73%
Median Survival Time ([2]; 6 mg./kg. i.p.): 25.0 days
T/C × 100 ([2]; 6 mg./kg. i.p., efficacy ≥125%): 151%
Median Survival Time ([2]; 12 mg./kg. i.p.): 30.0 days
T/C × 100 ([2]; 12 mg./kg. i.p., efficacy ≥125%): 182%
Median Survival Time ([2]; 25 mg./kg. i.p.): 31.0 days
T/C × 100 [2, 18]: 188%
Median Survival Time ([2]; 50 mg./kg. i.p.): 6.5 days
T/C × 100 [2, 19]: 39%

CNCCNCCNC1=C2C(=O)c3c(O)ccc(O)c3C(=O)C2=C(NCCNCCNC)CC1 [Leuco-1,4-bis[2-(2-methylaminoethylamino)ethylamino]-5,8-dihydroxyanthraquinone]
Median Survival Time ([1]; 6.2 mg./kg. i.p.): 15.0 days
Median Survival Time ([1]; 12.5 mg./kg. i.p.): 16.0 days
Median Survival Time ([1]; 25 mg./kg. i.p.): 21.0 days
Median Survival Time ([1]; 50 mg./kg. i.p.): 28.0 days
Median Survival Time ([1]; 100 mg./kg. i.p.): 26.0 days
Median Survival Time ([1]; 200 mg./kg. i.p.): 2.0 days
response vs control in vivo at 6.2 mg/kg [1, 16]: 136%
response vs control in vivo at 12.5 mg/kg [1, 3]: 145%
response vs control in vivo at 25 mg/kg [1, 4]: 191%
response vs control in vivo at 50 mg/kg [1, 5]: 255%
response vs control in vivo at 100 mg/kg [1, 6]: 236%
response vs control in vivo at 200 mg/kg [1, 7]: 18%
Median Survival Time ([2]; 6.2 mg./kg. i.p.): 28.5 days
Median Survival Time ([2]; 12.5 mg./kg. i.p.): 39.5 days
Median Survival Time ([2]; 25 mg./kg. i.p.): 35.0 days
Median Survival Time ([2]; 50 mg./kg. i.p.): 12.5 days
response vs control in vivo at 6.2 mg/kg ([2]; Mus musculus, ip, 6.2 mg./kg. i.p., efficacy ≥125%, read-out: T/C × 100): 168%
response vs control in vivo at 12.5 mg/kg [2, 10]: 232%
response vs control in vivo at 25 mg/kg [2, 11]: 206%
response vs control in vivo at 50 mg/kg [2, 12]: 73%

CNCCNC1=C2C(=O)c3c(O)ccc(O)c3C(=O)C2=C(NCCNC)CC1 [Leuco-1,4-bis[2-(methylamino)ethylamino]-5,8-dihydroxyanthraquinone]
Median Survival Time ([1]; 1.5 mg./kg. i.p.): 13.0 days
Median Survival Time ([1]; 3.1 mg./kg. i.p.): 15.0 days
Median Survival Time ([1]; 6.2 mg./kg. i.p.): 21.0 days
Median Survival Time ([1]; 12.5 mg./kg. i.p.): 19.0 days
Median Survival Time ([1]; 25 mg./kg. i.p.): 19.0 days
Median Survival Time ([1]; 50 mg./kg. i.p.): 6.0 days
response vs control in vivo at 1.5 mg/kg [1, 14]: 118%
response vs control in vivo at 3.1 mg/kg [1, 15]: 136%
response vs control in vivo at 6.2 mg/kg [1, 16]: 191%
response vs control in vivo at 12.5 mg/kg [1, 3]: 173%
response vs control in vivo at 25 mg/kg [1, 4]: 173%
response vs control in vivo at 50 mg/kg [1, 5]: 55%
Median Survival Time ([2]; 0.7 mg./kg. i.p.): 27.5 days
Median Survival Time ([2]; 1.5 mg./kg. i.p.): 36.0 days
Median Survival Time ([2]; 3 mg./kg. i.p.): 31.0 days
Median Survival Time ([2]; 6 mg./kg. i.p.): 32.5 days
Median Survival Time ([2]; 12 mg./kg. i.p.): 28.0 days
response vs control in vivo at 0.7 mg/kg ([2]; Mus musculus, ip, 0.7 mg./kg. i.p., efficacy ≥125%, read-out: T/C × 100): 172%
response vs control in vivo at 1.5 mg/kg [2, 17]: 225%
response vs control in vivo at 3 mg/kg [2, 8]: 194%
response vs control in vivo at 6 mg/kg [2, 9]: 203%
response vs control in vivo at 12 mg/kg [2, 13]: 175%

Source: patent US4526989A, “1,4-Bis (substituted-amino)-5,8-dihydroxy-anthraquinones and leuco bases thereof” (priority 1979, dated 1985)
